Where two headings read alike, the source gives them in different places. Where a SMILES comes first, the peptide text is derived from it. The star is where a group is joined. AMC = Cc1cc(=O)oc2cc(N*)ccc12; Tos = Cc1ccc(S(=O)(=O)*)cc1; Cbz = O=C(OCc1ccccc1)*; Boc = CC(C)(C)OC(=O)*
What was measured:
[1] = target: T1, FhCL3 (Fasciola hepatica, UniProt B3TM67); test: Hydrolysis of fluorogenic peptidyl-NHMec substrates by recombinant FhCL3; assay type: biochemical; details: for kcat/Km fold increase over FhCL1 / kcat/Km fold lower than FhCL1: FhCL3 compared to FhCL1; for fold better cleavage efficiency of FhCL3 than FhCL2: FhCL3 compared to FhCL2
T1 sequence (B3TM67 entry or part of it): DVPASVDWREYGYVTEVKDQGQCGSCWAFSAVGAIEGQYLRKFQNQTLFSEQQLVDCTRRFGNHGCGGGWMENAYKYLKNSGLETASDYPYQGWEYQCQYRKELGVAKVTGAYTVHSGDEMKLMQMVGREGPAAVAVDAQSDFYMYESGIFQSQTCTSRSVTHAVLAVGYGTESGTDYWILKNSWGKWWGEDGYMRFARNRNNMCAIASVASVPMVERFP
Procedure: (§1) Initial rates were obtained at 37°C over a range of substrate concentrations spanning Km values (0.2–200 µM) and at fixed enzyme concentrations (0.5–5 nM). Assays were performed in 100 mM sodium phosphate buffer (pH 6.0) containing 1 mM DTT and 1 mM EDTA. Rate constants for the inactivation of the Fasciola enzymes by Z-Phe-Ala-CHN2 and cathepsin K inhibitor II were determined from progress curves in the presence of substrate as previously described.

[2] = target: T2, FhCL2 (Fasciola hepatica, UniProt Q7JNQ8); test: Hydrolysis of fluorogenic peptidyl-NHMec substrates by recombinant FhCL2; assay type: biochemical; details: FhCL2 compared to FhCL1
T2 sequence (Q7JNQ8 entry or part of it): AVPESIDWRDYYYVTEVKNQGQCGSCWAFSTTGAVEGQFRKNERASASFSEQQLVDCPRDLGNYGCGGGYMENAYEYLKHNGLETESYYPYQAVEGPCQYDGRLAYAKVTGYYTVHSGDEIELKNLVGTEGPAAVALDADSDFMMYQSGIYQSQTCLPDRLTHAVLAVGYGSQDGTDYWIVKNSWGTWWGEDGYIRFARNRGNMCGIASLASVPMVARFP
Procedure: as §1

[3] = target: T2, FhCL2; test: Inactivation of recombinant FhCL2 by inhibitors (progress curves in presence of substrate); assay type: biochemical
Procedure: as §1

[4] = target: T1, FhCL3; test: Inactivation of recombinant FhCL3 by inhibitors (progress curves in presence of substrate); assay type: biochemical
Procedure: as §1

[5] = target: T3, FhCL1 (Fasciola hepatica, UniProt Q7JNQ9); test: Inactivation of recombinant FhCL1 by inhibitors (progress curves in presence of substrate); assay type: biochemical; details: for Ki: FhCL1
T3 construct: His tag (inferred from Ni-NTA purification) (C); made in house; host or cells: Pichia pastoris
T3 sequence (Q7JNQ9 entry or part of it): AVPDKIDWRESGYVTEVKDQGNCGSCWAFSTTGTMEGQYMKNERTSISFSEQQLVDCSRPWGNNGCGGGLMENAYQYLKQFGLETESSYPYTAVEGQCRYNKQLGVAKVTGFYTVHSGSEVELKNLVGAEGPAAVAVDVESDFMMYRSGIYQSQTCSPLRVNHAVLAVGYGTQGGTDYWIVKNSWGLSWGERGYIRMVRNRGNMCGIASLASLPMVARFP
Procedure: as §1

[6] = system: Cc1cc(=O)oc2cc(NC(=O)[C@H](CCCNC(=N)N)NC(=O)[C@@H]3CCCN3C(=O)[C@@H](NC(=O)OC(C)(C)C)C(C)C)ccc12; test: Hydrolysis of fluorogenic peptidyl-NHMec substrates by recombinant FhCL1; assay type: biochemical, Fasciola hepatica; details: other: FhCL1, pH 6.0, 37°C
Procedure: as §1

[7] = system: Cc1cc(=O)oc2cc(NC(=O)[C@H](CCCNC(=N)N)NC(=O)[C@H](Cc3ccccc3)NC(=O)OCc3ccccc3)ccc12; test: as above; assay type: biochemical, Fasciola hepatica; details: other: FhCL1, pH 6.0, 37°C
Procedure: as §1

[8] = system: Cc1ccc(S(=O)(=O)NCC(=O)N2CCC[C@H]2C(=O)N[C@@H](CCCCN)C(=O)Nc2ccc3c(C)cc(=O)oc3c2)cc1; test: as above; assay type: biochemical, Fasciola hepatica; details: other: FhCL1, pH 6.0, 37°C
Procedure: as §1

[9] = system: Cc1cc(=O)oc2cc(NC(=O)[C@H](CCCNC(=N)N)NC(=O)[C@@H]3CCCN3C(=O)CNC(=O)[C@H](C)NC(=O)OC(C)(C)C)ccc12; test: as above; assay type: biochemical, Fasciola hepatica; details: other: FhCL1, pH 6.0, 37°C
Procedure: as §1

[10] = system: Cc1cc(=O)oc2cc(NC(=O)[C@H](CCCNC(=N)N)NC(=O)[C@@H](NC(=O)[C@@H](NC(=O)OCc3ccccc3)C(C)C)C(C)C)ccc12; test: as above; assay type: biochemical, Fasciola hepatica; details: other: FhCL1, pH 6.0, 37°C
Procedure: as §1

[11] = system: Cc1cc(=O)oc2cc(NC(=O)[C@H](CCCCN)NC(=O)[C@H](CC(C)C)NC(=O)[C@@H](NC(=O)OC(C)(C)C)C(C)C)ccc12; test: as above; assay type: biochemical, Fasciola hepatica; details: other: FhCL1, pH 6.0, 37°C
Procedure: as §1

[12] = system: Cc1ccc(S(=O)(=O)NCC(=O)N2CCC[C@H]2C(=O)N[C@@H](CCCNC(=N)N)C(=O)Nc2ccc3c(C)cc(=O)oc3c2)cc1; test: as above; assay type: biochemical, Fasciola hepatica; details: other: FhCL1, pH 6.0, 37°C
Procedure: as §1

[13] = system: Cc1cc(=O)oc2cc(NC(=O)[C@H](CCCNC(=N)N)NC(=O)[C@H](CC(C)C)NC(=O)OCc3ccccc3)ccc12; test: as above; assay type: biochemical, Fasciola hepatica; details: other: FhCL1, pH 6.0, 37°C
Procedure: as §1

Cc1cc(=O)oc2cc(NC(=O)[C@H](CCCN=C(N)N)NC(=O)[C@@H]3CCCN3C(=O)CNC(=O)[C@H](C)NC(=O)OC(C)(C)C)ccc12 [Boc-AGPR-NHMec, Boc-Ala-Gly-Pro-Arg-NHMec] (Boc-AGPR-{AMC})
kcat/Km fold increase over FhCL1 [1]: 90 fold | kcat/Km fold increase over FhCL1 [2]: 86 fold

Cc1cc(=O)oc2cc(NC(=O)[C@H](CCCN=C(N)N)NC(=O)[C@@H]3CCCN3C(=O)[C@@H](NC(=O)OC(C)(C)C)C(C)C)ccc12 [Boc-VPR-NHMec, Boc-Val-Pro-Arg-NHMec] (Boc-Val-Pro-Arg-{AMC})
kcat/Km fold increase over FhCL1 [1]: 3 fold | kcat/Km fold increase over FhCL1 [2]: 44 fold

CC(C)C[C@H](NC(=O)OCc1ccccc1)C(=O)NNC(=O)NNC(=O)[C@H](CC(C)C)NC(=O)[C@H](Cc1ccccc1)NC(=O)OC(C)(C)C [Cathepsin K inhibitor II, Z-LNHNHCONHNHLF-Boc]
Ki [3]: 0.46 nM | Ki ([3]; read-out: Ki(app)): 4.8 nM | fold less effective against FhCL3 compared to FhCL1 ([4]; FhCL3 vs FhCL1): 14 fold | fold less effective against FhCL3 compared to FhCL2 ([4]; FhCL3 vs FhCL2): 20 fold | Ki ([5]; Ki(app)): 12.2 nM | Ki ([5]; Ki): 0.63 nM

Cc1ccc(S(=O)(=O)NCC(=O)N2CCC[C@H]2C(=O)N[C@@H](CCCCN)C(=O)Nc2ccc3c(C)cc(=O)oc3c2)cc1 [Tos-GPK-NHMec, Tos-Gly-Pro-Lys-NHMec] (Tos-Gly-Pro-Lys-{AMC})
kcat/Km fold increase over FhCL1 [1]: 60 fold | fold better cleavage efficiency of FhCL3 than FhCL2 [1]: 3 fold | kcat/Km fold increase over FhCL1 [2]: 22 fold

Cc1ccc(S(=O)(=O)NCC(=O)N2CCC[C@H]2C(=O)N[C@@H](CCCN=C(N)N)C(=O)Nc2ccc3c(C)cc(=O)oc3c2)cc1 [Tos-GPR-NHMec, Tos-Gly-Pro-Arg-NHMec] (Tos-Gly-Pro-Arg-{AMC})
kcat/Km fold increase over FhCL1 [1]: 142 fold | fold better cleavage efficiency of FhCL3 than FhCL2 [1]: 5 fold | kcat/Km fold increase over FhCL1 [2]: 28 fold

Cc1cc(=O)oc2cc(NC(=O)[C@H](CCCN=C(N)N)NC(=O)[C@H](Cc3ccccc3)NC(=O)OCc3ccccc3)ccc12 [Z-FR-NHMec, Z-Phe-Arg-NHMec] (Cbz-Phe-Arg-{AMC})
kcat/Km fold lower than FhCL1 [1]: 65 fold | kcat/Km fold lower than FhCL1 [2]: 6 fold

Cc1cc(=O)oc2cc(NC(=O)[C@H](CCCN=C(N)N)NC(=O)[C@H](CC(C)C)NC(=O)OCc3ccccc3)ccc12 [Z-LR-NHMec, Z-Leu-Arg-NHMec]
kcat/Km fold lower than FhCL1 [1]: 66 fold | kcat/Km fold lower than FhCL1 [2]: 3.5 fold

C[C@H](NC(=O)[C@H](Cc1ccccc1)NC(=O)OCc1ccccc1)C(=O)C=[N+]=[N-] [Z-Phe-Ala-CHN2]
Ki [3]: 5.32 nM | Ki ([3]; read-out: Ki(app)): 55.2 nM | rate of inactivation of FhCL3, fold lower ([4]; FhCL3 in contrast to FhCL1 and FhCL2): 20 fold | rate of inactivation of FhCL1, fold higher than that of FhCL2 ([5]; FhCL1 compared to FhCL2): ~2 fold | Ki ([5]; Ki(app)): 31.4 nM | Ki ([5]; Ki): 1.62 nM

FhCL1 (Fasciola hepatica)
Km [6]: 22 µM | kcat [6]: 0.01 s⁻¹ | kcat/Km [6]: 479 M⁻¹ s⁻¹ | Km [7]: 1.9 µM | kcat [7]: 0.12 s⁻¹ | kcat/Km [7]: 64900 M⁻¹ s⁻¹ | Km [8]: 17.42 µM | kcat [8]: 0.01 s⁻¹ | kcat/Km [8]: 612 M⁻¹ s⁻¹ | Km [9]: 18.8 µM | kcat [9]: 0.01 s⁻¹ | kcat/Km [9]: 674 M⁻¹ s⁻¹ | Km [10]: 2.84 µM | kcat [10]: 0.021 s⁻¹ | kcat/Km [10]: 7460 M⁻¹ s⁻¹ | Km [11]: 2.5 µM | kcat [11]: 0.14 s⁻¹ | kcat/Km [11]: 54300 M⁻¹ s⁻¹ | Km [12]: 27.2 µM | kcat [12]: 0.02 s⁻¹ | kcat/Km [12]: 672 M⁻¹ s⁻¹ | Km [13]: 1.09 µM | kcat [13]: 1.63 s⁻¹ | kcat/Km [13]: 1.49e+06 M⁻¹ s⁻¹
